Experimental data published in paper PMC9612005 (Pharmaceutics, 2022).

How the values were obtained:
[1] = biological target: T1, rod CNG channels (CNGA1:CNGB1a) (Bos taurus, UniProt Q00194+Q28181); experiment: Patch-clamp on inside-out patches, heterotetrameric rod CNG channels expressed in Xenopus laevis oocytes; assay type: cell-based, bovine; conditions: for effect on cGMP-activated rod CNG-channel activity: analogue(s) co-applied with cGMP (50 µM; combination 50 µM inhibitor + activator); for efficacy in activating rod CNG channels compared to cGMP: related to maximal cGMP-induced current
T1 construct: expressed in transfected cells; host or cells: Xenopus laevis oocytes (cRNA injection, pGEMHE vector); inside-out patches
T1 sequence (Q00194 whole entry): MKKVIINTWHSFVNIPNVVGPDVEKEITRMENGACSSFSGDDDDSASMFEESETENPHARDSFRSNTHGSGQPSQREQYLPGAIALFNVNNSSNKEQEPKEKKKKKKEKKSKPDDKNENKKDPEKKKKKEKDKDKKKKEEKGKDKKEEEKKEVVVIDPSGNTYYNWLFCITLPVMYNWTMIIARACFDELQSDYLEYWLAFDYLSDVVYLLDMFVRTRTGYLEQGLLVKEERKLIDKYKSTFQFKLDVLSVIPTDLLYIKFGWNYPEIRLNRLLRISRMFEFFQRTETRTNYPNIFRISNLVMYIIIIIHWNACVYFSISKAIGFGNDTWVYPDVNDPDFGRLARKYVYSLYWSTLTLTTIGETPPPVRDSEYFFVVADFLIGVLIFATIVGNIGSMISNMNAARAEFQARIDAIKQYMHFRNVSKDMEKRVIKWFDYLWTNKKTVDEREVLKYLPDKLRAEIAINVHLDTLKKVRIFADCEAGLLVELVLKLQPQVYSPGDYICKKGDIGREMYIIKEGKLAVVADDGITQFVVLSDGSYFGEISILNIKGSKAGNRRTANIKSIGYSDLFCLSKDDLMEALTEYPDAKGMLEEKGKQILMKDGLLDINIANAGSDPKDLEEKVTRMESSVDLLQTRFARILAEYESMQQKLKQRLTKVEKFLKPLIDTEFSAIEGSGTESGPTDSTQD
T1 sequence (Q28181 whole entry): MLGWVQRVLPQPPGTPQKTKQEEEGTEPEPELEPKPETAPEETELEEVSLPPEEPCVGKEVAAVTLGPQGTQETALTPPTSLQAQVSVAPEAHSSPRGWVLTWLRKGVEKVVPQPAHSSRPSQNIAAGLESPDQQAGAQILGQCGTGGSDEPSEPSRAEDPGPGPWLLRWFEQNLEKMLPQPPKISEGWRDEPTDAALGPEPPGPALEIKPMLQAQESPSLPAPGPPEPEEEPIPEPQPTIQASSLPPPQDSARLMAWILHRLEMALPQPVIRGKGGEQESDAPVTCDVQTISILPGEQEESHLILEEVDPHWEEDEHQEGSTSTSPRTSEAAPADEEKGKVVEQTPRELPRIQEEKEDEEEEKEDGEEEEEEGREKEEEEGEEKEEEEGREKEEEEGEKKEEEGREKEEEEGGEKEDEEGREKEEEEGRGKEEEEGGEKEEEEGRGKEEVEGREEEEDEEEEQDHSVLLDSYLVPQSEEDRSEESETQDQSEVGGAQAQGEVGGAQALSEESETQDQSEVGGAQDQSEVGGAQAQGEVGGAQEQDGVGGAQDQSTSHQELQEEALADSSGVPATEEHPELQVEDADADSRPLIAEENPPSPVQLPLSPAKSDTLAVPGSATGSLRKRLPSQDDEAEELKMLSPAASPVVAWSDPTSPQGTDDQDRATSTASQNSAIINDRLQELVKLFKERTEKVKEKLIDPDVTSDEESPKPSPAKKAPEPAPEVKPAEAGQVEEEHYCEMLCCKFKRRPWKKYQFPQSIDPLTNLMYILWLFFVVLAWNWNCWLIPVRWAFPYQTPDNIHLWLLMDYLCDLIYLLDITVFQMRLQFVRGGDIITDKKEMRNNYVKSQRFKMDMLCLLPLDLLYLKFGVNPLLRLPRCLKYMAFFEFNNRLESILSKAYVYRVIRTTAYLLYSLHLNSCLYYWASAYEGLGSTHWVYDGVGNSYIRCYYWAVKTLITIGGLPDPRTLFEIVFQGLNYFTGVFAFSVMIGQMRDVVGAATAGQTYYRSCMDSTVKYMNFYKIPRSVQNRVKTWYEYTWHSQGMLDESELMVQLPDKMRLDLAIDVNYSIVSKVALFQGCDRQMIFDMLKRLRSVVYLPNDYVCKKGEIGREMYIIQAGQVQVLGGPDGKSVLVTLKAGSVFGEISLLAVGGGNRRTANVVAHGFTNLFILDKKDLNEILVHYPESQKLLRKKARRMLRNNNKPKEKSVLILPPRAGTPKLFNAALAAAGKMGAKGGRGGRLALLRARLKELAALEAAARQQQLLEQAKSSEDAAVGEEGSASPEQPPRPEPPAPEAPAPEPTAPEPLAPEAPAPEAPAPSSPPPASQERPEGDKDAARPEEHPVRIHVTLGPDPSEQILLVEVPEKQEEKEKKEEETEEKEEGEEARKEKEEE
From the text: The patch pipettes were pulled from borosilicate glass tubing (outer diameter 2.0 mm, inner diameter 1.0 mm; Hilgenberg GmbH, Malsfeld, Germany). The initial resistance of the solution-filled pipettes was 0.6–1.4 MΩ. […] For studying the activation and deactivation kinetics of CNG channels, we performed fast jumps between different ligand concentrations by means of a double-barreled θ-glass pipette mounted on a piezo-driven device, which was controlled by the computer. For measuring the time courses, the recording rate was 20 kHz. […]

[2] = biological target: T2, cone CNG channels (CNGA3:CNGB3) (Homo sapiens, UniProt Q16281+Q9NQW8); experiment: Patch-clamp on inside-out patches, heterotetrameric cone CNG channels expressed in Xenopus laevis oocytes; assay type: cell-based; conditions: for effect on cGMP-activated cone CNG-channel activity: analogue(s) co-applied with cGMP (50 µM; combination 50 µM inhibitor + activator); for efficacy in activating cone CNG channels compared to cGMP: related to maximal cGMP-induced current; for EC50: concentration-activation relationship, Hill fit, read-out: EC50, cone CNG channels
T2 construct: expressed in transfected cells; host or cells: Xenopus laevis oocytes (cRNA injection, pGEMHE vector); inside-out patches
T2 sequence (Q16281 1-694): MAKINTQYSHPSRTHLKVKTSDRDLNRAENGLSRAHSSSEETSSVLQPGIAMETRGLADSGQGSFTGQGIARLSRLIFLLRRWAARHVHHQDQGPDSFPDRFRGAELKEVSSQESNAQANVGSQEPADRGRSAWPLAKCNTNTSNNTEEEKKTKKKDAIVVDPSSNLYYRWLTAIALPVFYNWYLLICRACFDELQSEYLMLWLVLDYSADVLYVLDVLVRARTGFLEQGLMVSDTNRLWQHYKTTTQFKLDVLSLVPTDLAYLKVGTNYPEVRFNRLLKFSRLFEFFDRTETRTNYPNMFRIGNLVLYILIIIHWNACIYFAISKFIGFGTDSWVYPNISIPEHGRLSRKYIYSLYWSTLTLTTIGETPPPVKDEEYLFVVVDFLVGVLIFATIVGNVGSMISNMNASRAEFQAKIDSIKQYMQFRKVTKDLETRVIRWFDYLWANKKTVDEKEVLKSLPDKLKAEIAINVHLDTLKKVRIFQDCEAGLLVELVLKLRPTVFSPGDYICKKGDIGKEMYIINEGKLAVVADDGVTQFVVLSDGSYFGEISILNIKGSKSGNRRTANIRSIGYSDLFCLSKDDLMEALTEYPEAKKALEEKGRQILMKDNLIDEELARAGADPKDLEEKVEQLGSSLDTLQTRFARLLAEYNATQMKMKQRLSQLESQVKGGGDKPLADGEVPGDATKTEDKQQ
T2 sequence (Q9NQW8 1-809): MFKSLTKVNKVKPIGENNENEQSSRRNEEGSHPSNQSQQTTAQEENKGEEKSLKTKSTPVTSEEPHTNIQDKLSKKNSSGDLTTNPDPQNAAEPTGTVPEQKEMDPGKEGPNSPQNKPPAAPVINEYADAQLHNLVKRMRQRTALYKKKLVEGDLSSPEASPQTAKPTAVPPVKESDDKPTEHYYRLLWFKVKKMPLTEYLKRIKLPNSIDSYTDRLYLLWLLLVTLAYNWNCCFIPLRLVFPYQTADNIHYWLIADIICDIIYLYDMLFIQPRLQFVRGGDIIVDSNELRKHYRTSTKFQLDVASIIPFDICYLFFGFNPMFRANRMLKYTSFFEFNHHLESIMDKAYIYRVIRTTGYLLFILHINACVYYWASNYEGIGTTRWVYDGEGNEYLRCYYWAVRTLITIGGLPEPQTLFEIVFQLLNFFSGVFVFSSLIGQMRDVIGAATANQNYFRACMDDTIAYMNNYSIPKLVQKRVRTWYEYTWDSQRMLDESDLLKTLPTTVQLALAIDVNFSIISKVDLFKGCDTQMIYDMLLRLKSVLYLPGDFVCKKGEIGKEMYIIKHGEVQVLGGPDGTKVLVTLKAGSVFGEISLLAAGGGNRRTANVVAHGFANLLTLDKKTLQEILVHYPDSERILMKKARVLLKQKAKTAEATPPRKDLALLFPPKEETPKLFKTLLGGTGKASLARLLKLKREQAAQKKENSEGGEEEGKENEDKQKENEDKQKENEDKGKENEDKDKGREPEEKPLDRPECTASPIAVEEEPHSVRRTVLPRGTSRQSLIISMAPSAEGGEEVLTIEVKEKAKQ
From the text: The patch pipettes were pulled from borosilicate glass tubing (outer diameter 2.0 mm, inner diameter 1.0 mm; Hilgenberg GmbH, Malsfeld, Germany). The initial resistance of the solution-filled pipettes was 0.6–1.4 MΩ. […] For studying the activation and deactivation kinetics of CNG channels, we performed fast jumps between different ligand concentrations by means of a double-barreled θ-glass pipette mounted on a piezo-driven device, which was controlled by the computer. For measuring the time courses, the recording rate was 20 kHz.
The activation and deactivation time courses were determined by fitting the respective current traces with single exponentials:(3) I(t)=A∗exp[−t/τ] where A is the amplitude, t the time, and τ the time constant for either activation or deactivation.

CNG-channel in rods = test system: CNG-channel in rods; design: method as in PMID 8778280; conditions: previous study, ref [44]; cited from earlier work
[3] = 100 µM, +100 mV, activity triggered by 3 mM cGMP
[4] = cGMP + 50 µM of the cGMP analogue

Structure (SMILES) | H (Hill coefficient), rod CNG channels [1, 4] | effect on cGMP-activated cone CNG-channel activity [2] | H (Hill coefficient), cone CNG channels [2, 4] | efficacy in activating rod CNG channels compared to cGMP ([1]; +100 mV) | efficacy in activating cone CNG channels compared to cGMP ([2]; +100 mV) | other results
COc1ccc([C@H]2Sc3ccccc3N(CCN(C)C)C(=O)[C@H]2OC(C)=O)cc1 (relative stereo) [L-cis-diltiazem, reference compound] |  |  |  |  |  | block of rod CNG channel activity [1, 3]: ~ 90.5%; block of cone CNG channel activity [2, 3]: ~ 63.4%
O=c1c2nc(Br)n([C@@H]3O[C@@H]4COP(=O)(O)O[C@H]4[C@H]3O)c2nc2[nH]c(-c3ccccc3)cn12 [8-Br-PET-cGMP] | 1.05 | under physiological cGMP it produced a potentiation of retinal CNG-channel activity, whereas at higher cGMP it caused minor inhibition | 1.5 |  |  | effect on cGMP-activated rod CNG-channel activity [1]: under physiological cGMP it produced a potentiation of retinal CNG-channel activity, whereas at higher cGMP it caused minor inhibition; Emax ([1]; read-out: efficacy of activating rod channel, of maximal activation): < 1%
Nc1nc2c(nc(Sc3ccc(Cl)cc3)n2[C@@H]2O[C@@H]3CO[P@@](=O)(S)O[C@H]3[C@H]2O)c(=O)[nH]1 [Rp-8-pCPT-cGMPS] | 1.23 | their activity at physiological cGMP increased, and at higher cGMP levels decreased | 1.04 | drastically reduced the efficacy | drastically reduced the efficacy | effect on cGMP-activated rod CNG-channel activity [1]: their activity at physiological cGMP increased, and at higher cGMP levels decreased; maximal CNG-channel activation in rods (CNG-channel in rods): ~ 93%
O=c1c2ncn([C@@H]3O[C@@H]4COP(=O)(O)O[C@H]4[C@H]3O)c2nc2[nH]c(-c3ccccc3)cn12 [PET-cGMP] |  |  |  | partial agonist | partial agonist | 
Nc1nc2c(nc(Br)n2[C@@H]2O[C@@H]3COP(=O)(O)O[C@H]3[C@H]2O)c(=O)[nH]1 [8-Br-cGMP] |  |  |  |  |  | H (Hill coefficient), rod CNG channels ([1]; ligand alone): 2.1; EC50 ([1]; ligand alone, concentration-activation relationship, Hill fit, read-out: EC50, rod CNG channels): 6.61 µM; H (Hill coefficient), cone CNG channels ([2]; ligand alone): 1.94; EC50 ([2]; ligand alone): 1.05 µM
O=c1c2nc(Br)n([C@@H]3O[C@@H]4CO[P@@](=O)(S)O[C@H]4[C@H]3O)c2nc2[nH]c(-c3ccc4ccccc4c3)cn12 [Rp-8-Br-(2-N)ET-cGMPS] | 1.66 |  | 1.53 | lower efficacy than cGMP | lower efficacy than cGMP | 
Nc1nc2c(ncn2[C@@H]2O[C@@H]3COP(=O)(O)O[C@H]3[C@H]2O)c(=O)[nH]1 [cGMP, reference compound] |  |  |  |  |  | H (Hill coefficient), rod CNG channels ([1]; ligand alone): 2.1; deactivation time constant τdeact, cone CNG channels ([2]; 5 µM cGMP alone or 5 µM cGMP + 50 µM inhibitor + 0.1 µM activator, concentration jump): 80.6 ± 4.6 ms; H (Hill coefficient), cone CNG channels ([2]; ligand alone): 1.47; EC50 ([2]; ligand alone): 11.1 µM
O=c1c2ncn([C@@H]3O[C@@H]4CO[P@@](=O)(S)O[C@H]4[C@H]3O)c2nc2[nH]c(-c3ccc4ccccc4c3)cn12 [Rp-(2-N)ET-cGMPS] | 1.68 |  | 1.84 | lower efficacy than cGMP | lower efficacy than cGMP | 
O=C1Cn2c(nc3c(nc(Br)n3[C@@H]3O[C@@H]4CO[P@@](=O)(S)O[C@H]4[C@H]3O)c2=O)N1 [Rp-ß-1,N2-Ac-Br-cGMPS, Rp-ß-1,N^2-Ac-Br-cGMPS] | 2.06 | did not influence the activity of cone channels | 1.64 | lower efficacy than cGMP | lower efficacy than cGMP | 
Nc1nc2c(ncn2[C@@H]2O[C@@H]3CO[P@@](=O)(S)O[C@H]3[C@H]2O)c(=O)[nH]1 [Rp-cGMPS] | 1.52 | did not influence the activity of cone channels | 1.13 | lower efficacy than cGMP | lower efficacy than cGMP | 
